From patent US20020111274A1, “1-alkyl-3-[1-(substituted phenyl) benzotriazol-6-yl] uracils” (BASF Aktiengesellschaft, priority 2000, published 2002)

Experiments:
Set-up in all cases: scale not given here
SETVI Foxtail, Green [1] = assay: Postemergence herbicidal evaluation, SETVI; format: in vivo, Setaria viridis, (L.) Beau; details: postemergence spray, rated about two-three weeks after treatment
Procedure: (§1) In this evaluation, seedling plants are grown in jiffy flats for about two weeks. The test compounds are dispersed in 80/20 acetone/water mixtures containing 1.0% SUN-IT® II, a methylated seed oil, in sufficient quantities to provide the equivalent of about 0.006 kg to 0.400 kg per hectare of active compound when applied to the plants through a spray nozzle operating at 40 psi for a predetermined time. After spraying, the plants are placed on greenhouse benches and are cared for in accordance with conventional greenhouse procedures. Approximately two - three weeks after treatment, the seedling plants are examined and rated according to the rating system set forth below. Where more than one test is involved for a given compound, the data are averaged.

GLXMAW Soybean, Williams = assay: Postemergence herbicidal evaluation, GLXMAW; format: in vivo, Glycine max, (L.) Merr. cv Williams; details: postemergence spray, rated about two-three weeks after treatment
Procedure: as §1

ZEAMX Corn, Field [2] = assay: Preemergence herbicidal evaluation, ZEAMX; format: in vivo, Zea mays, L. (Sammel-Bezeichnung); details: preemergence
Description: (§2) The preemergence herbicidal activity of the test compounds of the present invention is exemplified by the following tests in which the seeds of a variety of monocotyledonous and dicotyledonous plants are separately mixed with potting soil and planted on top of approximately one inch of soil in separate pint cups. […] The treated cups are then placed on greenhouse benches, watered and cared for in accordance with conventional greenhouse procedures. From four to five weeks after treatment, the tests are terminated and each cup is examined and rated according to the rating system provided in Example 46.

ABUTH Velvetleaf [3] = assay: Postemergence herbicidal evaluation, ABUTH; format: in vivo, Abutilon theophrasti, Medic.; details: postemergence spray, rated about two-three weeks after treatment
Procedure: as §1

ECHOG Barnyardgrass = assay: Postemergence herbicidal evaluation, ECHOG; format: in vivo, Echinochloa crus-galli, (L.) Beau; details: postemergence spray, rated about two-three weeks after treatment
Procedure: as §1

ZEAMX Corn, Field [4] = assay: Postemergence herbicidal evaluation, ZEAMX; format: in vivo, Zea mays, L. (Sammel-Bezeichnung); details: postemergence spray, rated about two-three weeks after treatment
Procedure: as §1

CASOB Sicklepod = assay: Postemergence herbicidal evaluation, CASOB; format: in vivo, Cassia obtusifolia, L.; details: postemergence spray, rated about two-three weeks after treatment
Procedure: as §1

SETVI Foxtail, Green [5] = assay: Preemergence herbicidal evaluation, SETVI; format: in vivo, Setaria viridis, (L.) Beau; details: preemergence
Description: as §2

ORYSAT Rice, Tebonnet = assay: Preemergence herbicidal evaluation, ORYSAT; format: in vivo, Oryza sativa, (L.); details: preemergence
Description: as §2

[6] = system: CHEAL Lambsquarters, Common; assay: Postemergence herbicidal evaluation, CHEAL; format: in vivo, Chenopodium album, L.; details: postemergence spray, rated about two-three weeks after treatment
Procedure: as §1

ABUTH Velvetleaf [7] = assay: Preemergence herbicidal evaluation, ABUTH; format: in vivo, Abutilon theophrasti, Medic.; details: preemergence
Description: as §2

GALAP Galium = assay: Preemergence herbicidal evaluation, GALAP; format: in vivo, Galium aparine; details: preemergence
Description: as §2

Cc1ccc(-n2nnc3cc(F)c(-n4c(=O)cc(C(F)(F)F)n(C)c4=O)cc32)cc1 [Example 19]
Postemergence herbicidal rating SETVI (SETVI Foxtail, Green [1]; 0.008 kg/ha): 0.0 | Postemergence herbicidal rating SETVI (SETVI Foxtail, Green [1]; 0.016 kg/ha): 0.0 | Postemergence herbicidal rating SETVI (SETVI Foxtail, Green [1]; 0.032 kg/ha): 0.0 | Postemergence herbicidal rating SETVI (SETVI Foxtail, Green [1]; 0.062 kg/ha): 3.0 | Postemergence herbicidal rating GLXMAW (GLXMAW Soybean, Williams; 0.008 kg/ha): 4.5 | Postemergence herbicidal rating GLXMAW (GLXMAW Soybean, Williams; 0.016 kg/ha): 5.5 | Postemergence herbicidal rating GLXMAW (GLXMAW Soybean, Williams; 0.032 kg/ha): 6.5 | Postemergence herbicidal rating GLXMAW (GLXMAW Soybean, Williams; 0.062 kg/ha): 7.5 | ZEAMX herbicidal rating (ZEAMX Corn, Field [2]; rate 0.016 kg/ha): 1.0 | ZEAMX herbicidal rating (ZEAMX Corn, Field [2]; rate 0.032 kg/ha): 1.5 | ZEAMX herbicidal rating (ZEAMX Corn, Field [2]; rate 0.062 kg/ha): 4.0 | ZEAMX herbicidal rating (ZEAMX Corn, Field [2]; rate 0.125 kg/ha): 6.5 | Postemergence herbicidal rating ABUTH (ABUTH Velvetleaf [3]; 0.008 kg/ha): 9.0 | Postemergence herbicidal rating ABUTH (ABUTH Velvetleaf [3]; 0.016 kg/ha): 9.0 | Postemergence herbicidal rating ABUTH (ABUTH Velvetleaf [3]; 0.032 kg/ha): 9.0 | Postemergence herbicidal rating ABUTH (ABUTH Velvetleaf [3]; 0.062 kg/ha): 9.0 | Postemergence herbicidal rating ECHCG (ECHOG Barnyardgrass; 0.008 kg/ha): 0.0 | Postemergence herbicidal rating ECHCG (ECHOG Barnyardgrass; 0.016 kg/ha): 0.0 | Postemergence herbicidal rating ECHCG (ECHOG Barnyardgrass; 0.032 kg/ha): 0.0 | Postemergence herbicidal rating ECHCG (ECHOG Barnyardgrass; 0.062 kg/ha): 0.0 | Postemergence herbicidal rating ZEAMX (ZEAMX Corn, Field [4]; 0.008 kg/ha): 4.5 | Postemergence herbicidal rating ZEAMX (ZEAMX Corn, Field [4]; 0.016 kg/ha): 4.5 | Postemergence herbicidal rating ZEAMX (ZEAMX Corn, Field [4]; 0.032 kg/ha): 5.0 | Postemergence herbicidal rating ZEAMX (ZEAMX Corn, Field [4]; 0.062 kg/ha): 5.5 | Postemergence herbicidal rating CASOB (CASOB Sicklepod; 0.008 kg/ha): 0.0 | Postemergence herbicidal rating CASOB (CASOB Sicklepod; 0.016 kg/ha): 0.0 | Postemergence herbicidal rating CASOB (CASOB Sicklepod; 0.032 kg/ha): 2.0 | Postemergence herbicidal rating CASOB (CASOB Sicklepod; 0.062 kg/ha): 2.0 | SETVI herbicidal rating (SETVI Foxtail, Green [5]; rate 0.016 kg/ha): 4.5 | SETVI herbicidal rating (SETVI Foxtail, Green [5]; rate 0.032 kg/ha): 7.0 | SETVI herbicidal rating (SETVI Foxtail, Green [5]; rate 0.062 kg/ha): 9.0 | SETVI herbicidal rating (SETVI Foxtail, Green [5]; rate 0.125 kg/ha): 9.0 | ORYSAT herbicidal rating (ORYSAT Rice, Tebonnet; rate 0.016 kg/ha): 0.0 | ORYSAT herbicidal rating (ORYSAT Rice, Tebonnet; rate 0.032 kg/ha): 0.5 | ORYSAT herbicidal rating (ORYSAT Rice, Tebonnet; rate 0.062 kg/ha): 1.5 | ORYSAT herbicidal rating (ORYSAT Rice, Tebonnet; rate 0.125 kg/ha): 2.0 | Postemergence herbicidal rating CHEAL ([6]; 0.008 kg/ha): 1.0 | Postemergence herbicidal rating CHEAL ([6]; 0.016 kg/ha): 2.0 | Postemergence herbicidal rating CHEAL ([6]; 0.032 kg/ha): 3.0 | Postemergence herbicidal rating CHEAL ([6]; 0.062 kg/ha): 5.0 | ABUTH herbicidal rating (ABUTH Velvetleaf [7]; rate 0.016 kg/ha): 1.0 | ABUTH herbicidal rating (ABUTH Velvetleaf [7]; rate 0.032 kg/ha): 6.5 | ABUTH herbicidal rating (ABUTH Velvetleaf [7]; rate 0.062 kg/ha): 9.0 | ABUTH herbicidal rating (ABUTH Velvetleaf [7]; rate 0.125 kg/ha): 9.0 | GALAP herbicidal rating (GALAP Galium; rate 0.016 kg/ha): 0.0 | GALAP herbicidal rating (GALAP Galium; rate 0.032 kg/ha): 0.0 | GALAP herbicidal rating (GALAP Galium; rate 0.062 kg/ha): 0.0 | GALAP herbicidal rating (GALAP Galium; rate 0.125 kg/ha): 9.0
